How the values were obtained:
Format in all cases: in vivo
[1] = tested on: Cabbage Looper (CL) (Trichoplusia ni); assay: Bioassay on cabbage looper (CL), 128-well diet tray assay; conditions: for CL Rating: Table 5, prophetic compounds subsequently exemplified, cabbage looper; for pest or weed control at 50 µg/cm2: Trichoplusia ni, 168 h, % mortality, second instar larvae, 50 μg/cm^2 on artificial diet, five to seven days, 25° C., read-out: CL Rating
Experimental: (§1) Certain molecules disclosed in this document were tested against BAW, CEW and CL using procedures described in the following examples. In the reporting of the results, the “BAW & CEW & CL Rating Table” was used (See Table Section).
Bioassays on CL were conducted using a 128-well diet tray assay. One to five second instar CL larvae were placed in each well (3 mL) of the diet tray that had been previously filled with 1 mL of artificial diet to which 50 μg/cm^2 of the test compound (dissolved in 50 μL of 90:10 acetone-water mixture) had been applied (to each of eight wells) and then allowed to dry. Trays were covered with a clear self-adhesive cover, and held at 25° C., 14:10 light-dark for five to seven days. Percent mortality was recorded for the larvae in each well; activity in the eight wells was then averaged. The results are indicated in the table entitled “Table 4: Assay Results Part 2” (See Table Section).

[2] = tested on: Beet Armyworm (BAW) (spodoptera exigua); assay: Bioassay on beet armyworm (BAW), 128-well diet tray assay; conditions: for BAW Rating: Table 5, prophetic compounds subsequently exemplified, beet armyworm; for pest or weed control at 50 µg/cm2: Spodoptera exigua, 168 h, % mortality, second instar larvae, 50 μg/cm^2 on artificial diet, five to seven days, 25° C., read-out: BAW Rating
Experimental: as §1
Bioassays on BAW were conducted using a 128-well diet tray assay. One to five second instar BAW larvae were placed in each well (3 mL) of the diet tray that had been previously filled with 1 mL of artificial diet to which 50 μg/cm^2 of the test compound (dissolved in 50 μL of 90:10 acetone-water mixture) had been applied (to each of eight wells) and then allowed to dry. Trays were covered with a clear self-adhesive cover, and held at 25° C., 14:10 light-dark for five to seven days. Percent mortality was recorded for the larvae in each well; activity in the eight wells was then averaged. The results are indicated in the tables entitled “Table 3: Assay Results Part 1” and “Table 4: Assay Results Part 2” (See Table Section).

[3] = tested on: green peach aphid (GPA) (Myzus persicae); assay: Bioassay on green peach aphid (GPA), foliar spray on cabbage seedlings; conditions: 72 h, corrected % control (Abbott), 200 ppm spray on cabbage seedlings, three days, read-out: GPA Rating
Experimental: Certain molecules disclosed in this document were tested against GPA using procedures described in the following example. In the reporting of the results, the “GPA Rating Table” was used (See Table Section). Cabbage seedlings grown in 3-inch pots, with 2-3 small (3-5 cm) true leaves, were used as test substrate. The seedlings were infested with 20-50 GPA (wingless adult and nymph stages) one day prior to chemical application. Four pots with individual seedlings were used for each treatment. Test compounds (2 mg) were dissolved in 2 mL of acetone/MeOH (1:1) solvent, forming stock solutions of 1000 ppm test compound. The stock solutions were diluted 5× with 0.025% Tween 20 in water to obtain the solution at 200 ppm test compound. A hand-held aspirator-type sprayer was used for spraying a solution to both sides of […] leaves until runoff. Reference plants (solvent check) were sprayed with the diluent only containing 20% by volume of acetone/MeOH (1:1) solvent. Treated plants were held in a holding room for three days at approximately 25° C. and ambient relative humidity (RH) prior to grading. Evaluation was conducted by counting the number of live aphids per plant under a microscope. Percent Control was measured by using Abbott's correction formula (W. S. Abbott, “A Method of Computing the Effectiveness of an Insecticide” J. Econ. Entomol. 18 (1925), pp. 265-267) as follows. […]

Row | Structure (SMILES) | CL Rating [1] | BAW Rating [2] | pest or weed control at 50 µg/cm2 [1] | pest or weed control at 50 µg/cm2 [2] | pest or weed control at 200 ppm [3]
1 | O=C(CNC(=O)c1ccc(/C=C/C(c2cc(Cl)c(Cl)c(Cl)c2)C(F)(F)F)cc1C(F)(F)F)NCC(F)F (centres unmarked) [P1566] | A (50-100) | A (50-100) |  |  | 
2 | C[C@@H](NC(=O)c1ccc(/C=C/C(c2cc(Cl)cc(Br)c2)C(F)(F)F)cc1Br)C(=O)NCC(F)(F)F (some centres unmarked) [P586] | A (50-100) | A (50-100) |  |  | 
3 | C[C@@H](NC(=O)c1ccc(/C=C/C(c2ccc(Cl)c(Cl)c2)C(F)(F)F)cc1Br)C(=O)NCC(F)(F)F (some centres unmarked) [P1806] | A (50-100) | A (50-100) |  |  | 
4 | C=Cc1cc(/C=C/C(c2cc(Cl)c(Cl)c(Cl)c2)C(F)(F)F)ccc1C(=O)N[C@H](C)C(=O)NCC(F)(F)F (some centres unmarked) [FA17] |  |  | 50 to 100% | 50 to 100% | 
5 | O=C(CNC(=O)c1ccc(/C=C/C(c2cc(Cl)c(Cl)c(Cl)c2)C(F)(F)F)cc1C(F)(F)F)NCC(F)(F)F (centres unmarked) [P1556] | A (50-100) | A (50-100) |  |  | 
6 | C[C@@H](NC(=O)c1ccc(/C=C/C(c2cccc(OC(F)(F)F)c2)C(F)(F)F)cc1C(F)(F)F)C(=O)NCC(F)(F)F (some centres unmarked) [P228] | A (50-100) | A (50-100) |  |  | 
7 | CC(NC(=O)CNC(=O)c1ccc(/C=C/C(c2cc(Cl)c(Cl)c(Cl)c2)C(F)(F)F)cc1C(F)(F)F)C(F)(F)F (centres unmarked) [P1591] | A (50-100) | A (50-100) |  |  | 
8 | O=C(CCNC(=O)c1ccc(/C=C/C(c2cc(Cl)c(Cl)c(Cl)c2)C(F)(F)F)cc1Br)NCC(F)(F)F (centres unmarked) [P1638] | A (50-100) | A (50-100) |  |  | 
9 | CC(NC(=O)CNC(=O)c1ccc(/C=C/C(c2cc(Br)cc(Br)c2)C(F)(F)F)cc1C(F)(F)F)C(F)(F)F (centres unmarked) [P2011] | A (50-100) | A (50-100) |  |  | 
10 | C[C@@H](NC(=O)c1ccc(/C=C/C(c2cc(Cl)c(Cl)c(Cl)c2)C(F)(F)F)cc1Br)C(=O)NCCF (some centres unmarked) [P1616] | A (50-100) | A (50-100) |  |  | 
11 | CC(NC(=O)c1ccc(/C=C/C(c2cc(Cl)c(Cl)c(Cl)c2)C(F)(F)F)cc1C(F)(F)F)C(=O)NCCF (centres unmarked) [P1618A, (E)-N-(1-((2-Fluoroethyl)amino)-1-oxopropan-2-yl)-4-(4,4,4-trifluoro-3-(3,4,5-trichlorophenyl)but-1-en-1-yl)-2-(trifluoromethyl)benzamide] | A (50-100) | A (50-100) |  |  | 
12 | C[C@@H](NC(=O)c1ccc(/C=C/C(c2cc(Br)c(Cl)c(Br)c2)C(F)(F)F)cc1Br)C(=O)NCC(F)(F)F (some centres unmarked) [FA26] |  |  | 50 to 100% | 50 to 100% | 
13 | C[C@@H](NC(=O)c1ccc(/C=C/C(c2cc(Cl)cc(Cl)c2)C(F)(F)C(F)(F)F)cc1Br)C(=O)NCC(F)(F)F (some centres unmarked) [P1691] | A (50-100) | A (50-100) |  |  | 
14 | O=C(CNC(=O)c1ccc(/C=C/C(c2cc(Cl)c(Cl)c(Cl)c2)C(F)(F)F)cc1Cl)NCC(F)F (centres unmarked) [FA1] |  |  | 50 to 100% | 50 to 100% | 
15 | C[C@@H](NC(=O)c1ccc(/C=C/C(c2cc(Cl)c(Cl)c(Cl)c2)C(F)(F)F)cc1I)C(=O)NCC(F)(F)F (some centres unmarked) [FA16] |  |  | 50 to 100% | 50 to 100% | 80 to 100%
16 | O=C(CNC(=O)c1ccc(/C=C/C(c2ccc(F)c(C(F)(F)F)c2)C(F)(F)F)cc1Br)NCC(F)(F)F (centres unmarked) [P1483] | A (50-100) | A (50-100) |  |  | 
17 | C[C@@H](NC(=O)c1ccc(/C=C/C(c2cc(Cl)cc(Cl)c2)C(F)(F)F)cc1C(F)(F)F)C(=O)NCC(F)(F)F (some centres unmarked) [P1698] | A (50-100) | A (50-100) |  |  | 
18 | Cc1cc(/C=C/C(c2cc(Cl)c(Cl)c(Cl)c2)C(F)(F)F)cc(C)c1C(=O)N[C@H](C)C(=O)NCC(F)(F)F (some centres unmarked) [FA28] |  |  | 50 to 100% | 50 to 100% | 
19 | C[C@@H](NC(=O)c1ccc(/C=C/C(c2cccc(OC(F)(F)F)c2)C(F)(F)F)cc1Br)C(=O)NCC(F)(F)F (some centres unmarked) [P226] | A (50-100) | A (50-100) |  |  | 

Row | Structure (SMILES) | CL Rating [1] | BAW Rating [2] | pest or weed control at 50 µg/cm2 [1] | pest or weed control at 50 µg/cm2 [2] | pest or weed control at 200 ppm [3]
20 | CCNC(=O)[C@@H](C)NC(=O)c1ccc(/C=C/C(c2cc(Cl)c(Cl)c(Cl)c2)C(F)(F)F)cc1C (some centres unmarked) [P1624] | A (50-100) | A (50-100) |  |  | 
21 | CSc1cc(/C=C/C(c2cc(Cl)c(F)c(Cl)c2)C(F)(F)F)ccc1C(=O)NCC(=O)NCC(F)(F)F (centres unmarked) [P12] | A (50-100) | A (50-100) |  |  | 
22 | C[C@@H](NC(=O)c1ccc(/C=C/C(c2cc(Cl)c(Cl)cc2Cl)C(F)(F)F)cc1Br)C(=O)NCC(F)(F)F (some centres unmarked) [P156] | A (50-100) | A (50-100) |  |  | 
23 | C[C@@H](NC(=O)c1ccc(/C=C/C(c2cc(Br)cc(Br)c2)C(F)(F)F)cc1C(F)(F)F)C(=O)NCCF (some centres unmarked) [P2043] | A (50-100) | A (50-100) |  |  | 
24 | CC(C)[C@@H](NC(=O)c1ccc(/C=C/C(c2cc(Cl)c(Cl)c(Cl)c2)C(F)(F)F)cc1C(F)(F)F)C(=O)NCC(F)(F)F (some centres unmarked) [FA33] |  |  | 50 to 100% | 50 to 100% | 
25 | O=C(CNC(=O)c1ccc(/C=C/C(c2cc(Br)cc(Br)c2)C(F)(F)F)cc1C(F)(F)F)NCC(F)(F)F (centres unmarked) [P1971] | A (50-100) | A (50-100) |  |  | 
26 | CC(NC(=O)c1ccc(/C=C/C(c2cc(Cl)c(Cl)c(Cl)c2)C(F)(F)F)cc1C(F)(F)F)C(=O)NCC(F)F (centres unmarked) [P1613A] | A (50-100) | A (50-100) |  |  | 
27 | CCNC(=O)[C@@H](C)NC(=O)c1ccc(/C=C/C(c2cc(Cl)c(Cl)c(Cl)c2)C(F)(F)F)cc1C(F)(F)F (some centres unmarked) [P1623] | A (50-100) | A (50-100) |  |  | 
28 | C[C@@H](NC(=O)c1ccc(/C=C/C(c2ccc(OC(F)(F)F)c(Cl)c2)C(F)(F)F)cc1Br)C(=O)NCC(F)(F)F (some centres unmarked) [FA30] |  |  | 50 to 100% | 50 to 100% | 
29 | O=C(CNC(=O)c1ccc(/C=C/C(c2cc(Br)cc(Br)c2)C(F)(F)F)cc1Cl)NCC(F)(F)F (centres unmarked) [P1970] | A (50-100) | A (50-100) |  |  | 
30 | Fc1c(Cl)cc(C(/C=C/c2ccc(C(=S)NCC(=S)NCC(F)(F)F)c(Br)c2)C(F)(F)F)cc1Cl (centres unmarked) [P14] | A (50-100) | B (More than 0-Less than 50) |  |  | 
31 | Nc1cc(/C=C/C(c2cc(Cl)c(F)c(Cl)c2)C(F)(F)F)ccc1C(=O)NCC(=O)NCC(F)(F)F (centres unmarked) [FA6] |  |  | 50 to 100% | 50 to 100% | 
32 | CC(NC(=O)CNC(=O)c1ccc(/C=C/C(c2cc(Cl)c(Cl)c(Cl)c2)C(F)(F)F)cc1Br)C(F)(F)F (centres unmarked) [P1589] | A (50-100) | A (50-100) |  |  | 
33 | C[C@@H](NC(=O)c1ccc(/C=C/C(c2cc(Br)cc(Br)c2)C(F)(F)F)cc1Br)C(=O)NCCC(F)(F)F (some centres unmarked) [P2056] | A (50-100) | A (50-100) |  |  | 
34 | COc1cc(C(=O)NCC(=O)NCC(F)(F)F)c(Cl)cc1/C=C/C(c1cc(Cl)c(Cl)c(Cl)c1)C(F)(F)F (centres unmarked) [FA5] |  |  | 50 to 100% | 50 to 100% | 
35 | C[C@@H](NC(=O)c1ccc(/C=C/C(c2cc(Br)cc(Br)c2)C(F)(F)F)cc1C(F)(F)F)C(=O)NCCC(F)(F)F (some centres unmarked) [P2058] | A (50-100) | A (50-100) |  |  | 
36 | C[C@@H](NC(=O)c1ccc(/C=C/C(c2ccc(F)c(C#N)c2)C(F)(F)F)cc1Br)C(=O)NCC(F)(F)F (some centres unmarked) [P802] | A (50-100) | A (50-100) |  |  | 
37 | CC(NC(=O)CNC(=O)c1ccc(/C=C/C(c2cc(Br)cc(Br)c2)C(F)(F)F)cc1Cl)C(F)(F)F (centres unmarked) [P2010] | A (50-100) | A (50-100) |  |  | 
38 | O=C(NCC(=S)NCC(F)(F)F)c1ccc(/C=C/C(c2cc(Cl)c(Cl)c(Cl)c2)C(F)(F)F)cc1Cl (centres unmarked) [P1558] | A (50-100) | A (50-100) |  |  | 

Source: patent US9226501B2, “Pesticidal compositions and processes related thereto” (Dow AgroSciences LLC, priority 2012, dated 2016)
